Measured values from PMC11259064, “Enhanced binding of guanylated poly(A) RNA by the LaM domain of LARP1” (RNA Biology, 2024).
Several values for one entry are separate records, joined by “and”; a condition that tells them apart may be missing. Equal entries are not always repeated. Each block holds one molecule with its values, some of them ahead of it.

Legend:
[1] = molecular target: T1, human LARP1 LaM domain (residues 323–410) (Homo sapiens, UniProt Q6PKG0); test: Isothermal titration calorimetry (ITC) of RNA ligands binding LARP1 (323-410); details: for Rel. aff. (affinity relative to AAAAAA): Figure 2B, higher = tighter binding than A6; for binding to the LaM domain by ITC (in words): LaM 40 μM in cell, cyclic dinucleotide 730-860 μM in syringe
T1 construct: human LARP1 LaM domain (residues 323–410); made in house; host or cells: E. coli
Protocol: ITC experiments were performed on the VP-ITC titration calorimeter (Malvern Instruments Ltd) except where noted. […] All experiments were carried out at 20°C with 29 injections of 10 µl. Results were analysed using ORIGIN software (MicroCal) and fitted to a binding model with a single set of identical sites, except where noted.

LARP1 323-410 Q333A [2] = molecular target: T2, LARP1 323-410 Q333A (Homo sapiens, UniProt Q6PKG0); test: ITC of RNA ligands binding LARP1 323-410 Q333A; details: Q333A mutant; LaM 30 (cell), RNA 300-600 (syringe)
T2 construct: ITC Data Collection and Analysis for LARP1 323-410 Q333A; His-tag; made in house; host or cells: E. coli
Protocol: (§1) ITC experiments were performed on the VP-ITC titration calorimeter (Malvern Instruments Ltd) except where noted. The syringe was loaded with 300 µM RNA sample, while the sample cell contained 20–30 µM LARP1 (323–410) sample. All experiments were carried out at 20°C with 29 injections of 10 µl. Results were analysed using ORIGIN software (MicroCal) and fitted to a binding model with a single set of identical sites, except where noted.
(§2) Table S3. ITC Data Collection and Analysis for LARP1 323-410 Q333A
(§3) RNA Kd, nM relative to DH, kcal mol-1 DS, cal mol-1 K-1 Conc., µM
(§4) 1Data acquired on iTC200 (Malvern Instruments Ltd).

LARP1 323-410 Q333A [3] = molecular target: T3, LARP1 323-410 Q333A (Homo sapiens, UniProt Q6PKG0, Q410A); test: ITC of RNA ligands binding LARP1 323-410 Q333A; details: Q333A mutant
T3 construct: ITC Data Collection and Analysis for LARP1 323-410 Q333A; His-tag; made in house; host or cells: E. coli
Protocol: as §1, §2, §3, §4

[4] = molecular target: T1, human LARP1 LaM domain (residues 323–410); details: ITC of RNA oligonucleotides; cited from earlier work
[5] = molecular target: T1, human LARP1 LaM domain (residues 323–410); test: NMR titration of single nucleotides into 15N-labelled LARP1 (323-410), chemical shift changes; assay type: binding; details: for Kd: 0.1 mM 15N-LARP1 (323-410), 10 mM MES pH 6.3, 100 mM NaCl, 25°C, fit accounts for bound ligand, two nucleotide binding sites, read-out: Kd, binding affinity estimated from chemical shift change (I364 amide) as a function of nucleotide concentration
Protocol: We carried out NMR titrations with single nucleotides binding to^15N-labelled LARP1 LaM to isolate the individual nucleotide interactions (Figure 1A). The addition of nucleotides caused spectral changes similar to those observed with the hexamer A6 but with smaller shifts and fewer signals affected (Suppl. Figure S1). […] The signals with the largest changes were the amide of Ile364 and side chain amides of Gln333.
At 200 µM, 5´-GMP shifted the Gln333 signal twice as much as 5´-AMP. […] We used the size of the chemical shift change as a function of nucleotide concentration to estimate binding affinities (Figure 1C). […] This had the advantage that it also provided an estimate of the binding stoichiometry. For 5´-GMP, the stoichiometry was measured to be 2.04 with an affinity of 40 µM. […] This is at odds with the affinities of oligonucleotides measured by isothermal titration calorimetry (ITC).
NMR samples were exchanged into 10 mM MES pH 6.3, 100 mM NaCl, 1 mM TCEP. For NMR titrations, nucleotides were added to 0.1 mM^15N-labelled LARP1 (323–410) to final molar ratios of 5:1. All NMR experiments were performed at 25°C using a Bruker 600 MHz spectrometer. NMR spectra were processed using NMRPipe and analysed with SPARKY [51]. Binding affinities were measured by fitting the observed chemical shift changes accounting for bound ligand with a stoichiometry of two nucleotide binding sites.

[6] = ITC, 20°C, LaM 20-30 µM in cell, RNA 300 µM in syringe, single set of identical sites, read-out: Kd
[7] = ITC, 20°C, LaM in cell, RNA in syringe
[8] = Table S1, LaM in cell, RNA in syringe
[9] = ITC, 20°C, LaM in cell, RNA in syringe, read-out: Kd
[10] = reversed titration: RNA 15 (cell), LaM 300 (syringe)

Molecule: 5´-APAPAPAPAPA-3´ [AAAAAA]
Rel. aff. (affinity relative to AAAAAA) [1]: 1.0
Kd [1, 6]: 0.25 µM
ΔH [1, 7]: -19.9 kcal/mol
ΔS [1, 7]: -37.6 cal mol^-1 K^-1
Affinity relative to A6 [1, 8]: 1

Molecule: 5´-APAPAPAPAPG-3´ [AAAAAG]
Rel. aff. (affinity relative to AAAAAA) [1]: 1.9
Kd [1, 6]: 0.13 ± 0.02 µM
ΔH [1, 7]: -27.5 kcal/mol
ΔS [1, 7]: -62.3 cal mol^-1 K^-1
Kd (LARP1 323-410 Q333A [2]): 19 ± 2 µM
ΔH (LARP1 323-410 Q333A [3]): -27.8 kcal/mol
ΔS (LARP1 323-410 Q333A [3]): -73.2 cal mol-1 K-1

Molecule: 5´-APAPAPAPGPA-3´ [AAAAGA]
Rel. aff. (affinity relative to AAAAAA) [1]: 3.2
ΔH [1, 7]: -29.5 kcal/mol
ΔS [1, 7]: -68.0 cal mol^-1 K^-1
Affinity relative to A6 [1, 8]: 0.32
Kd (LARP1 323-410 Q333A [2]): 10 ± 6 µM
ΔH (LARP1 323-410 Q333A [3]): -10.2 kcal/mol
ΔS (LARP1 323-410 Q333A [3]): -11.9 cal mol-1 K-1

Molecule: 5´-APAPAPGPAPA-3´ [AAAGAA]
Rel. aff. (affinity relative to AAAAAA) [1]: 1.8
Kd [1, 6]: 0.14 ± 0.02 µM
ΔH [1, 7]: -27.7 kcal/mol
ΔS [1, 7]: -63.2 cal mol^-1 K^-1
Affinity relative to A6 [1, 8]: 0.56

Molecule: Nc1nc2c(ncn2[C@@H]2O[C@@H]3COP(=O)(O)O[C@H]4[C@@H](O)[C@H](n5cnc6c(N)ncnc65)O[C@@H]4COP(=O)(O)O[C@H]3[C@H]2O)c(=O)[nH]1 [3',3'-cGAMP, 3‘,3’-cGAMP]
Kd [1]: 0.7 ± 0.3 µM
binding to the LaM domain by ITC (in words) [1]: sub-micromolar affinity
Affinity relative to A6 (site 1) ([1]; Table S1): 2.8
Affinity relative to A6 (site 2) ([1]; Table S1): 440
ΔH (site 1) ([1]; Table S1): 0 kcal/mol
ΔH (site 2) ([1]; Table S1): 4.8 kcal/mol
ΔS (site 1) ([1]; Table S1): 28.3 cal mol-1 K-1
ΔS (site 2) ([1]; Table S1): 34.4 cal mol-1 K-1
Kd ([1]; read-out: Kd2, second site, fit with two independent sets of sites, LaM 40 μM + ligand 730-750 μM): 110 µM
Kd ([1]; read-out: Kd (site 2), Table S1, LaM 40 (cell), ligand 730-750 (syringe)): > 10 µM

Molecule: Nc1ncnc2c1ncn2[C@@H]1O[C@H](COP(=O)(O)O)[C@@H](OP(=O)(O)O)[C@H]1O [3',5'-ADP, 3´,5´-ADP]
Gln333 signal change (in words) ([5]; NMR titration): broadened the Gln333 signal beyond detection
Ile364 chemical shift change (in words) ([5]; NMR titration): small shift

Molecule: Nc1ncnc2c1ncn2[C@@H]1O[C@H](CO)[C@@H](OP(=O)(O)O)[C@H]1O [3'-AMP, 3´-AMP]
Ile364 chemical shift change (in words) ([5]; NMR titration): not appreciably shifted
shift of the Ile364 peak, fold smaller than with 5´-AMP ([5]; NMR titration): 30 fold

Molecule: Nc1ncnc2c1ncn2[C@@H]1O[C@H](COP(=O)(O)O)[C@@H](O)[C@H]1O [5'-AMP, 5´-AMP]
Kd [5]: 130 µM

Second part, led by results:

Kd [1, 6]: 0.29 µM
ΔH [1, 7]: -19.4 kcal/mol
ΔS [1, 7]: -36.2 cal mol^-1 K^-1
Affinity relative to A6 [1, 8]: 1.16
Molecule: 5´-APAPAPAPAPSA-3´ [(RP)-AAAAAPSA]

ΔH [1, 7]: -23.1 kcal/mol
ΔS [1, 7]: -57.1 cal mol^-1 K^-1
Kd [1, 9]: 17 µM
fold lower affinity of the (SP)-phosphorothioate ([1]; ITC, Figure 5D, compared with the (RP)-phosphorothioate): 60 fold
Affinity relative to A6 [1, 8]: 68
Molecule: 5´-APAPAPAPAPSA-3´ [(SP)-AAAAAPSA]

ΔH [1, 7]: -23.9 kcal/mol
ΔS [1, 7]: -56.2 cal mol^-1 K^-1
Kd [1, 9]: 3.1 µM and ~3 µM
Affinity relative to A6 [1, 8]: 12.4
Molecule: 5´-APG-3´ [AG]

Kd ([1]; ITC, 20°C, LaM 20-30 µM in cell, RNA 300 µM in syringe, single set of identical sites): not fitted
Kd [1, 7]: Not fittable
Affinity relative to A6 ([1]; Table S1, reversed titration: RNA 15 (cell), LaM 300 (syringe)): 11.2
Kd ([1]; reversed titration: GG (15 µM) in cell + LaM (300 µM) in syringe, read-out: Kd): 2.8 µM and ~3 µM
ΔH [1, 10]: -34.1 kcal/mol
ΔS [1, 10]: -91.1 cal mol-1 K-1
Molecule: 5´-GPG-3´ [GG]

Kd [1, 6]: 1.8 ± 0.1 µM
ΔH [1, 7]: -21.4 kcal/mol
ΔS [1, 7]: -46.6 cal mol^-1 K^-1
Affinity relative to A6 [1, 8]: 7.2
Kd (LARP1 323-410 Q333A [2]): 100 ± 30 µM
ΔH (LARP1 323-410 Q333A [3]): -11.0 kcal/mol
ΔS (LARP1 323-410 Q333A [3]): -19.2 cal mol-1 K-1
Molecule: 5´-UPUPUPUPUPU-3´ [UUUUUU]
fold weaker binding affinity than A6 [4]: 11 fold

Kd [5]: 40 µM
shift of the Gln333 signal relative to 5´-AMP ([5]; at 200 µM nucleotide): twice as much
binding stoichiometry ([5]; from fit of NMR chemical shift changes): 2.04
Molecule: Nc1nc2c(ncn2[C@@H]2O[C@H](COP(=O)(O)O)[C@@H](O)[C@H]2O)c(=O)[nH]1 [5'-GMP, 5´-GMP]

binding to the LaM domain by ITC (in words) [1]: sub-micromolar affinity
Affinity relative to A6 (site 1) ([1]; Table S1): 1.2
Affinity relative to A6 (site 2) ([1]; Table S1): 220
ΔH (site 1) ([1]; Table S1): 0 kcal/mol
ΔH (site 2) ([1]; Table S1): 2.0 kcal/mol
ΔS (site 1) ([1]; Table S1): 29.8 cal mol-1 K-1
ΔS (site 2) ([1]; Table S1): 26.5 cal mol-1 K-1
Kd ([1]; Table S1, LaM 40 (cell), ligand 730-750 (syringe), read-out: Kd (site 1)): 0.3 ± 0.3 µM
Kd ([1]; Table S1, LaM 40 (cell), ligand 730-750 (syringe), read-out: Kd (site 2)): > 10 µM
Kd ([1]; second site, fit with two independent sets of sites, LaM 40 μM + ligand 730-750 μM, read-out: Kd2): 54 µM
Molecule: Nc1nc2c(ncn2[C@@H]2O[C@@H]3CO[P@](=O)(O)O[C@H]4[C@@H](O)[C@H](n5cnc6c(=O)[nH]c(N)nc65)O[C@@H]4CO[P@](=O)(O)O[C@H]3[C@H]2O)c(=O)[nH]1 [cyclic-di-GMP, Cyclic-di-GMP]
